The record followed here is US4871745A, “2- or 3-aryl substituted imidazo(1,2-A)pyridines and their use as antisecretory agents” (Ortho Pharmaceutical Corporation, priority 1988, dated 1989).

Assay [1] addresses T1, calcium channel (nitrendipine binding) (Oryctolagus cuniculus, UniProt P15381).
T1 construct: the heart was immediately removed, cleaned and chopped into small pieces; from tissue; host or cells: rabbit heart, crude membrane pellet (42,000×g)
Description: Inhibition of 3H-nitrendipine binding (heart membranes), calcium channel blocking activity. Further details: species or system female New Zealand white rabbits. The settings on record: 3H-nitrendipine 0.05-0.50 nM; rabbit heart membranes; 90 min at 4° C.; pH 7.4; read-out: B: IC50 (inhibition of nitrendipine binding). On the procedure:
(§1) The calcium channel blocking activity of the above compounds was determined by measuring (A) the inhibition of calcium dependent smooth muscle contraction and (B) inhibition of nitrendipine binding as follows.
(B) The inhibition of nitrendipine binding was determined by following the procedures of Bolger et al., Biochem. Biophys. Res. Comm. 104, 1604 (1982) and Ehlert et al., Life Sciences 30, 2191 (1982). Basically, female New Zealand white rabbits (1-2 kg) were sacrificed by cervical dislocation, and the heart was immediately removed, cleaned and chopped into small pieces. The tissue was homogenized in 5× volume of 0.05M Hepes buffer, pH 7.4. The homogenate was centrifuged at 400×g for 10 minutes; the supernatant was recentrifuged at 42,000×g for 90 minutes. The resulting membrane pellet was resuspended (0.7 ml/g weight) in 0.05M Hepes, pH 7.4, and stored at -70° C. until used. Each tube of the binding assay contained ^3 H-nitrendipine (0.05-0.50 nM), buffer, membranes (0.10 ml), and test compound in a total volume of 1.0 ml. After 90 minutes at 4° C., the bound nitrendipine was separated from the unbound by filtration to Whatman GF/C fibers. After rinsing, the filters were dried and counted in a liquid scintillation counter.
Non-specific binding of ^3 H-nitrendipine (that amount bound in the presence of excess unlabelled nitrendipine) was subtracted from the total bound to obtain specifically bound radiolabeled nitrendipine. The amount of specifically bound nitrendipine in the presence of a test compound was compared to that amount bound in the absence of a compound. A percent displacement (or inhibition) was then obtained.

The subject of assay [2] is quadriceps femoris muscle of one hind leg. Description: Local anesthetic activity: impaired ability of mice to grasp inverted screen after injection into quadriceps femoris muscle. In kind it is in vivo, male albino overnight-fasted mice. The settings on record: Mus musculus, im, 5 min; overnight-fasted mice; 0.05 ml solution or suspension (w/v) injected into quadriceps femoris muscle of one hind leg; observed 5 min later; read-out: Concentration (in %) of Compound Causing Local Anesthetic Activity. On the procedure: The local anesthetic activity of the above compounds was tested as follows.
The test compounds were dissolved or suspended in a 0.5% aqueous methylcellulose solution containing 0.4% (v/v) of Tween 80, The polyoxyethylene derivative of a sorbitan ester. Doses of up to 100 mg/kg were administered orally by gagvage tube to groups of three male albino overnight-fasted mice (18 to 24 g) which were observed intermittently for one hour. The mice were gently restrained and 0.05 ml of a 1% (w/v) solution or suspension of the test compound was injected into the quadriceps femoris muscle of one hind leg. Five minutes later, the mice were individually placed on a wire mesh screen. The wire mesh screen was then inverted. […] The response to the test compounds was compared to a similarly treated vehicle control group of mice.

A further assay deals with gastric acid secretion. The assay is described as follows: Antisecretory activity: gastric acid secretion in pylorus-ligated rats. The settings on record: Rattus norvegicus, intraduodenal or s.c., 4 h after ligation, acid output compared to control, read-out: % Acid Secreted. In kind it is in vivo, male Charles River Sprague Dawley derived rats. On the procedure:
The antisecretory activity of the above compounds was determined by measuring gastric acid secretion using pylorus ligation in a modification of the procedure of Shay et al., Gastroenterology 26, 906 (1954). Basically, male Charles River Sprague Dawley derived rats weighing 150-300 grams were deprived of food but not water for 18-24 hours prior to use. Water was withheld during the experiment, however. The rats were weighed, anesthesized with ether and the pylorus ligated according to the method of Shay et al., supra. Treatment or vehicle control was then administered intraduodenally (i.d.) or subcutaneously (s.c.). Rats were housed two/cage and sacrificed with CO2 four hours after ligation. The stomachs were removed, rinsed, and contents emptied into a graduated centrifuge tube. The tubes were centrifuged, the volume of gastric juice recorded, and any samples obviously contamined by feces, food or blood were eliminated. A 1 ml aliquot of gastric juice was titrated with 0.1N NaOH to a pH of 7.0-7.4. The volume of gastric juice secreted, the acid concentration, and the product of the volume times the concentration, i.e., the total amount of acid secreted, were measured.

In assay [3] the test system is calcium dependent smooth muscle contraction (trachealis muscle tissue). Description: Inhibition of calcium dependent smooth muscle contraction (tracheal rings, KCl challenge). It counts as cell-based, dogs. The settings on record: Canis lupus familiaris, 10 μM test compound for 10 min, dog tracheal rings, 30 min, 37° C. On the procedure:
as §1
(A) Trachea from dogs sacrificed by excess KCl injection were stored overnight at 4° C. in oxygenated Krebs-Henseleit buffer. Tracheal rings, one cartilage segment wide (5-10 mm) were cut starting from the bronchial end. After cutting the cartilage, the trachealis muscle tissue was suspended in oxygenated Krebs-Henseleit buffer at 37° C. in a 25 ml tissue bath. After a 60 minute equilibration period, the tissues were challenged with 10 μM carbachol. After five minutes, the tissues were rinsed and allowed to rest 50 minutes. The tissues were then challened with 50 mM KCl and, after 30 minutes, the contracts were quantitated. The tissues were then rinsed and re-equilibrated for 50 minutes. Test compounds were then added at 10 μM for 10 minutes, and the tissues were rechallenged with 40 mM KCl.
The percent inhibition of smooth muscle contraction was calculated from response data before and after drug treatment. [formula]

T1 sequence (P15381 whole entry, other chains not shown): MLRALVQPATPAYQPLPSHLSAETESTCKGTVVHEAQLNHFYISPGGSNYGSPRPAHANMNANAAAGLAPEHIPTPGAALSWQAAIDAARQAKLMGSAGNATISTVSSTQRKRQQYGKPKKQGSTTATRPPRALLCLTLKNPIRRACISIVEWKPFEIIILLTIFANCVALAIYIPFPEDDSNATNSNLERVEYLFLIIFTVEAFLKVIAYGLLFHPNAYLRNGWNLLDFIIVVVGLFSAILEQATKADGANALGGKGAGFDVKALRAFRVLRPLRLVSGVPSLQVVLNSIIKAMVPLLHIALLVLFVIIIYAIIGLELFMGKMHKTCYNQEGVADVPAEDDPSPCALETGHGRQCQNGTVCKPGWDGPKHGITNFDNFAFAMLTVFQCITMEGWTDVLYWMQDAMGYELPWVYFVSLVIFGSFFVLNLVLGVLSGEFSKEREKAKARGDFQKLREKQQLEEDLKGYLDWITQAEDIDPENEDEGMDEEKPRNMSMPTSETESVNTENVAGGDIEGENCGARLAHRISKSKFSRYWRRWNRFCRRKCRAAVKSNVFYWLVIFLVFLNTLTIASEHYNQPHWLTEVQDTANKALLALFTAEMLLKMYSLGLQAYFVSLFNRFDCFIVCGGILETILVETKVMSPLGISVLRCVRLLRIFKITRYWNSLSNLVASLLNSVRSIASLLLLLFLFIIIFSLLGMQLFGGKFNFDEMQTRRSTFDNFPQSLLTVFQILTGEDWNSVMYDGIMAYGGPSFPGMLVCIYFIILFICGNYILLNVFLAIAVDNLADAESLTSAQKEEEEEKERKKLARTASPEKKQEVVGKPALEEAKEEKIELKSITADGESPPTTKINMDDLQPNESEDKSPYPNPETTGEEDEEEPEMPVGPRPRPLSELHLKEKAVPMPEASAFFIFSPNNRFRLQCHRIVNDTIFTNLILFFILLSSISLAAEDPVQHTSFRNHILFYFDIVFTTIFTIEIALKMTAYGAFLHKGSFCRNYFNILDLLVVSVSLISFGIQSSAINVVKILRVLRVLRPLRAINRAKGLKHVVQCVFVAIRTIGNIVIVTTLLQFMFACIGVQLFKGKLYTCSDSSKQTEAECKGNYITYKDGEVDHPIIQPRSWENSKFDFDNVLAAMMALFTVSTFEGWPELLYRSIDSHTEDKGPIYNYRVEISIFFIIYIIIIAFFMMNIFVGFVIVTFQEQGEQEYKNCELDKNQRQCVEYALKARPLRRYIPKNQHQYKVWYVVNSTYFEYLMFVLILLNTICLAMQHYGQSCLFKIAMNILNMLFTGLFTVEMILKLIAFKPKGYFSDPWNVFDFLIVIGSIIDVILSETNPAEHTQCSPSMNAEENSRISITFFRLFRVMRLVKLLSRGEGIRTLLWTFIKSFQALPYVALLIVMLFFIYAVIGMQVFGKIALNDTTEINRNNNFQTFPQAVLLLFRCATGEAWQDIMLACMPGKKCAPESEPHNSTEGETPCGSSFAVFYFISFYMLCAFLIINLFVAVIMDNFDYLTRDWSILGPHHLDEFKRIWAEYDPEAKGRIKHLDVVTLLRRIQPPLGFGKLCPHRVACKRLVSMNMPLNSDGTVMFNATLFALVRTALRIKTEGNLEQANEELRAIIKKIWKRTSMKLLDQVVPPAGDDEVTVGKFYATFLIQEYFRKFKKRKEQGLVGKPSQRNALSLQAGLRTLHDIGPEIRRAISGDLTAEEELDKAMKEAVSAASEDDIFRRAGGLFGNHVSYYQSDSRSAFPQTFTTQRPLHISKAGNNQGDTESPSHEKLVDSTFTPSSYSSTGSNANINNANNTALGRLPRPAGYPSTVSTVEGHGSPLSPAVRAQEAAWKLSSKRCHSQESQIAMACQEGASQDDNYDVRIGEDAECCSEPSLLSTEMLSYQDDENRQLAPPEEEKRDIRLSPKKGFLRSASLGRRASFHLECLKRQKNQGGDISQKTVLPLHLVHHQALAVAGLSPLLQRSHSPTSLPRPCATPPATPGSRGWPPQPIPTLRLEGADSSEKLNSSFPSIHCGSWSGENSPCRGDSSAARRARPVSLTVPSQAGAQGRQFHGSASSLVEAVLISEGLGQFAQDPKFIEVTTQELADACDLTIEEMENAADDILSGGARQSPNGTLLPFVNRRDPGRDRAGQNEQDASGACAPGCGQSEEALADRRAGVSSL
T1 sequence (P13806 27-960 partner limits assumed, other chains not shown): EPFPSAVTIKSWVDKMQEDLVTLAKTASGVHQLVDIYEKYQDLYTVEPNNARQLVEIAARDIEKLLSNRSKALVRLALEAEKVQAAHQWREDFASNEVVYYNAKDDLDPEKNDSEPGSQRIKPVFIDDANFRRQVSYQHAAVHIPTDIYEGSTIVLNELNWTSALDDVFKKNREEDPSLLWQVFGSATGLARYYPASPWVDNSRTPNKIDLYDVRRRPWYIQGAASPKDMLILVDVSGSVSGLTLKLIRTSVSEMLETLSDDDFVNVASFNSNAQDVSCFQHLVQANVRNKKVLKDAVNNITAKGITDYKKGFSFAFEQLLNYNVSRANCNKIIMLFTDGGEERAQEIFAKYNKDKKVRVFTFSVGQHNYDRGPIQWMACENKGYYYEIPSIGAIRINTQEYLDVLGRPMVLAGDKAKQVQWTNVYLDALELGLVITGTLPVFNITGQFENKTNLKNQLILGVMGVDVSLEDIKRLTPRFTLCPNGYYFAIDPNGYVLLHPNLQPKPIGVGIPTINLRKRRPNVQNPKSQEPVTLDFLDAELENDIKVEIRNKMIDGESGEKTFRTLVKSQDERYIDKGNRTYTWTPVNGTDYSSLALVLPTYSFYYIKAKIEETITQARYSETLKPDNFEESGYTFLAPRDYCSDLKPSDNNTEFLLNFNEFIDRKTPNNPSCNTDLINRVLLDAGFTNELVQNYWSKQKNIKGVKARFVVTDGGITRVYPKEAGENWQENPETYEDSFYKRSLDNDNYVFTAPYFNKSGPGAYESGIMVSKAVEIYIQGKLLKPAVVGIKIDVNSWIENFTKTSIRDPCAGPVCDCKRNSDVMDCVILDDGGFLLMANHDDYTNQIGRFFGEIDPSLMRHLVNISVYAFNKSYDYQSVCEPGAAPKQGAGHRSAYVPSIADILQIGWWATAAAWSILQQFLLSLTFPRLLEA
T1 sequence (P13806 961-1106 partner limits assumed, other chains not shown): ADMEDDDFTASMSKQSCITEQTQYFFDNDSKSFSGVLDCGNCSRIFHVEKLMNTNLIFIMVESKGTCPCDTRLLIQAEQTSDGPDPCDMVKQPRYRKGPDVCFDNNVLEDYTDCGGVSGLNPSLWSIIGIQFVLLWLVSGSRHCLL

Turning to `CCCCN(CCCC)CCCOc1ccc(C(=O)c2cn3cc(Br)ccc3n2)cc1` [Example 12], the half-maximal inhibitory concentration (IC50) in assay [1] was 3 µM. Besides, the minimal effective concentration in assay [2] amounted to 10000 µg/mL.

As to `CCCCN(CCCC)CCCOc1ccc(C(=O)c2cn3cccc(C)c3n2)cc1` [Example 8, 2-(4-Dibutylaminopropoxybenzoyl)-8-methylimidazo[1,2-a]pyridine], the change in vivo at 20 mg/kg in the assay on gastric acid secretion was -27%. For the same compound, the half-inhibitory concentration (IC50) in assay [1] is 0.6 µM. Also, the inhibition at 10 µM in assay [3] turned out to be 58%. Further, the minimal effective concentration in assay [2] was 10000 µg/mL.

Turning to `CCCCN(CCCC)CCCOc1ccc(-c2cn3cccc(O)c3n2)cc1` [Example 5, 2-(4-Dibutylaminopropoxyphenyl)-8-hydroxyimidazo[1,2-a]pyridine], the minimal effective concentration in assay [2] amounted to 10000 µg/mL.

In the case of `CCCCN(CCCC)CCCOc1ccc(C(=O)c2cn3c(C)cc(C)cc3n2)cc1` [Example 9, 2-(4-Dibutylaminopropoxybenzoyl)-5,7-dimethylimidazo[1,2-a]pyridine], the change in vivo at 20 mg/kg with gastric acid secretion was -27%. Besides, in assay [1], the IC50 came to 2.2 µM. For the same compound, the inhibition at 10 µM in assay [3] stood at 39%. The minimal effective concentration in assay [2] amounted to 10000 µg/mL.

For `CCCCN(CCCC)CCCOc1ccc(C(=O)c2cn3ccc(C)cc3n2)cc1` [Example 10, 2-(4-Dibutylaminopropoxybenzoyl)-7-methylimidazo[1,2-a]pyridine], the concentration for half-maximal inhibition (IC50) in assay [1] was 1.6 µM. Further, in assay [3], the inhibition at 10 µM amounted to 42%. In addition, the minimal effective concentration in assay [2] was 10000 µg/mL.

`CCCCN(CCCC)CCCOc1ccc(-c2cn3ccc(C)cc3n2)cc1` [Example 4, 2-(4-Dibutylaminopropoxyphenyl)-7-methylimidazo[1,2-a]pyridine]: the 50% inhibitory concentration (IC50) in assay [1] was found to be 6 µM. The inhibition at 10 µM in assay [3] amounted to 46%. Moreover, the minimal effective concentration in assay [2] was determined as 1000 µg/mL.

Take `CCCCN(CCCC)CCCOc1ccc(C(=O)c2cnc3ccc(Br)cn23)cc1` [Example 14, 3-(4-Dibutylaminopropoxybenzoyl)-6-bromoimidazo[1,2-a]pyridine]: in the assay on gastric acid secretion, the change in vivo at 20 mg/kg is -18%. The IC50 in assay [1] turned out to be 0.2 µM. Further, the inhibition at 10 µM in assay [3] came to 62%. Also, the minimal effective concentration in assay [2] came to 1000 µg/mL.

For the compound `CCCCN(CCCC)CCCOc1ccc(-c2cn3ccccc3n2)cc1` [Example 1, 2-(4-Dibutylaminopropoxyphenyl)imidazo[1,2-a]pyridine], the change in vivo at 20 mg/kg with gastric acid secretion was -41%. Further, the IC50 in assay [1] worked out at 2.7 µM. Moreover, in assay [3], the inhibition at 10 µM worked out at 54%. The minimal effective concentration in assay [2] was 1000 µg/mL.

Consider `CCCCN(CCCC)CCCOc1ccc(-c2cn3cccc(OCc4ccccc4)c3n2)cc1` [Example 6, 2-(4-Dibutylaminopropoxyphenyl)-8-benzloxyimidazo[1,2-a]pyridine], for which, in the assay on gastric acid secretion, the change in vivo at 20 mg/kg was -16%. Also, in assay [1], the IC50 was above 8 µM. In addition, in assay [3], the inhibition at 10 µM is 35%. In addition, the minimal effective concentration in assay [2] worked out at 1000 µg/mL.

`CCCCN(CCCC)CCCOc1ccc(-c2nc3c(C)cccn3c2C)cc1` [Example 7, 2-(4-Dibutylaminopropoxyphenyl)-3,8-dimethylimidazo[1,2-a]pyridine]: the change in vivo at 20 mg/kg with gastric acid secretion was -54%. Also, the half-inhibitory concentration (IC50) in assay [1] came to 1.9 µM. Besides, the inhibition at 10 µM in assay [3] came out at 27%. Besides, the minimal effective concentration in assay [2] amounted to 1000 µg/mL.

With `CCCCN(CCCC)CCCOc1ccc(-c2cn3cc(Br)ccc3n2)cc1` [Example 3, 2-(4-Dibutylaminopropoxyphenyl)-6-bromoimidazo[1,2-a]pyridine], in the assay with gastric acid secretion, the change in vivo at 20 mg/kg was -18%. For the same compound, the IC50 in assay [1] is 2.5 µM. Further, the inhibition at 10 µM in assay [3] was 32%. Also, the minimal effective concentration in assay [2] is 10000 µg/mL.

For the compound `CCCCN(CCCC)CCCOc1ccc(-c2cn3cccc(C)c3n2)cc1` [Example 2, 2-(4-Dibutylaminopropoxyphenyl)-8-methylimidazo[1,2-a]pyridine], in the assay with gastric acid secretion, the change in vivo at 20 mg/kg is -91%. Further, the half-inhibitory concentration (IC50) in assay [1] was determined as 0.6 µM. Moreover, the inhibition at 10 µM in assay [3] amounted to 61%. Also, in assay [2], the minimal effective concentration came to 10 µg/mL.

On to `CCCCN(CCCC)CCCOc1ccc(C(=O)c2cn3cccc(OCc4ccccc4)c3n2)cc1` [Example 11, 2-(4-Dibutylaminopropoxybenzoyl)-8-benzyloxyimidazo[1,2-]pyridine], for which, in assay [1], the half-inhibitory concentration (IC50) was 2.3 µM. Moreover, the inhibition at 10 µM in assay [3] is 18%. The minimal effective concentration in assay [2] was 1000 µg/mL.

Regarding `CCCCN(CCCC)CCCOc1ccc(C(=O)c2cnc3c(C)cccn23)cc1` [Example 13, 3-(4-Dibutylaminopropoxybenzoyl)-8-methylimidazo[1,2-a]pyridine], the change in vivo at 40 mg/kg with gastric acid secretion (40 mg/kg) is -49%. Further, in assay [1], the IC50 is 0.53 µM. The inhibition at 10 µM in assay [3] is 56%. In addition, the minimal effective concentration in assay [2] was 1000 µg/mL.

The term IC50 denotes the concentration that inhibits the measured activity by half. As a reminder, the inhibition is the percentage by which the read-out fell short of the control.
